{"source": "paper PMC5484120", "about": "(Marine Drugs, 2017)", "biological_target": "T1, rα1β1εδ nAChR (UniProt P20782+P25108+P25109+P25110)", "T1 construct": "expressed in transfected cells; host or cells: Xenopus laevis oocytes injected with cRNA", "T1 sequence (P20782 21-493)": "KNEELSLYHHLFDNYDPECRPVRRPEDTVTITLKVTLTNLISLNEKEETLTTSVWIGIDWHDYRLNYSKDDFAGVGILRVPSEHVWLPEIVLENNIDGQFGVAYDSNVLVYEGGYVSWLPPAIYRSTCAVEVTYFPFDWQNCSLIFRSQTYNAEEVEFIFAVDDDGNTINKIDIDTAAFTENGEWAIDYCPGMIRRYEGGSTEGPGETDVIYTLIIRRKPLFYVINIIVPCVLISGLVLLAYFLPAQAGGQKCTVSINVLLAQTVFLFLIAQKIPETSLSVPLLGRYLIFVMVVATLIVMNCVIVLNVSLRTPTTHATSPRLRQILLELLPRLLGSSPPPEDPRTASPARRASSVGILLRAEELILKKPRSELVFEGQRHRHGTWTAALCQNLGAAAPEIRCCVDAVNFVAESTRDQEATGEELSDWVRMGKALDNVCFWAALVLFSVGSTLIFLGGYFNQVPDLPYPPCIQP", "T1 sequence (P25108 21-457)": "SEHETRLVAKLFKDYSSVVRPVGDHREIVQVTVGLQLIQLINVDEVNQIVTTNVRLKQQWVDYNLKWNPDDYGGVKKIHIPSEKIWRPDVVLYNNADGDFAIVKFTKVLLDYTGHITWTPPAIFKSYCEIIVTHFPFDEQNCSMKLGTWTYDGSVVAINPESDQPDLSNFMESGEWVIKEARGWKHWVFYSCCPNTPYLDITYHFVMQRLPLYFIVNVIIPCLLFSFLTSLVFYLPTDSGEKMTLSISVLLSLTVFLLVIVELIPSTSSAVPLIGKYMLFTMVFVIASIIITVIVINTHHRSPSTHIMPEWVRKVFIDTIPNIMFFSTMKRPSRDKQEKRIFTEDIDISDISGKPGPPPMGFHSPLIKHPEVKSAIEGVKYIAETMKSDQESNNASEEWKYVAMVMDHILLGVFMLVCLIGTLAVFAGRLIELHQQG", "T1 sequence (P25109 24-501)": "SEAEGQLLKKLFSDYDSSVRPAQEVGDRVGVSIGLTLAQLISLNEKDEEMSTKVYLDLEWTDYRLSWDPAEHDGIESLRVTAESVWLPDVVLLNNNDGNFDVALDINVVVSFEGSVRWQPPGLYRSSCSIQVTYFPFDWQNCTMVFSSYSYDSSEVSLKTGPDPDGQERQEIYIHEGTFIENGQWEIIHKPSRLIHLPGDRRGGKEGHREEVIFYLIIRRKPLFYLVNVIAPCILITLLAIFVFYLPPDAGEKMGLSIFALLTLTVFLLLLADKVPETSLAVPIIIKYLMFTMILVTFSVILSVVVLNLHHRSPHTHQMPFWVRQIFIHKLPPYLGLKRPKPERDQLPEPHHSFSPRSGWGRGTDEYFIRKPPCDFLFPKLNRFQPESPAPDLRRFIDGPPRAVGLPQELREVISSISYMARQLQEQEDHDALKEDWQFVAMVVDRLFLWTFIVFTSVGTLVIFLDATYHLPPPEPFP", "T1 sequence (P25110 22-517)": "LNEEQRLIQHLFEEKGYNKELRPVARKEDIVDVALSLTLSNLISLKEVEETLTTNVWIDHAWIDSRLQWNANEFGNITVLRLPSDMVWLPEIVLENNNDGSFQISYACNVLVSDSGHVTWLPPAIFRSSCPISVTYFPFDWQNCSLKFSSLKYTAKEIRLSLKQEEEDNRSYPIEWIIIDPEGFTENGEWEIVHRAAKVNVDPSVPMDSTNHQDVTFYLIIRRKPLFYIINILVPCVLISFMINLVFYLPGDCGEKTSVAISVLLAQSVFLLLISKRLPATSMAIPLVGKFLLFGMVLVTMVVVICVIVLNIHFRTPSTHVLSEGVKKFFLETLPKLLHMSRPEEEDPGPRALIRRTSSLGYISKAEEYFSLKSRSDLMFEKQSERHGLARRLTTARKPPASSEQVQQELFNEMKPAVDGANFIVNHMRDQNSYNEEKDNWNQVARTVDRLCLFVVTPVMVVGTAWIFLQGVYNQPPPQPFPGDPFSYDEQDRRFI", "experiment": "cell-based", "parameters": "species or system rodent: rat (α1, β1, and δ), mouse (ε)"}
{"smiles": "CSCC[C@H](NC(=O)[C@H](CC(C)C)NC(=O)[C@H](C)N)C(=O)N[C@@H](CO)C(=O)N[C@H](C(=O)NCC(=O)N[C@H](C(=O)N[C@@H](CC(N)=O)C(=O)N[C@@H](Cc1ccc(O)cc1)C(=O)N[C@@H](CCCNC(=N)N)C(=O)N[C@@H](CC(C)C)C(=O)N[C@@H](CC(C)C)C(=O)N[C@@H](CCCCN)C(=O)N[C@H](C(=O)N[C@@H](CSCC(N)=O)C(=O)N[C@@H](CCCNC(=N)N)C(=O)NCC(=O)N[C@@H](CO)C(=O)NCC(=O)N[C@@H](CCCNC(=N)N)C(=O)N[C@@H](Cc1ccc(O)cc1)C(=O)N[C@@H](CSCC(N)=O)C(=O)N[C@@H](CCCNC(=N)N)C(=O)N[C@@H](CO)C(=O)N1CCC[C@H]1C(=O)N[C@@H](Cc1ccc(O)cc1)C(=O)O)[C@@H](C)O)[C@@H](C)O)[C@@H](C)O", "note": "[GeXXVIIA-L-Nter]", "values": [{"measurement": "IC50", "value": "2190 ± 240", "unit": "nM"}, {"measurement": "IC50 relative to GeXXVIIA-L, rα1β1εδ nAChR", "value": "about three-fold higher than GeXXVIIA-L"}]}
